Source: patent US20070190188A1, “Controlling Toxicity of Aminoquinoline Compounds” (The University of Mississippi, priority 2005, published 2007)

Key:
human erythrocytes = test: In vitro methemoglobin formation, human erythrocytes, control without microsomes; format: cell-based
[1] = system: pooled human liver microsomes; test: In vitro formation of methemoglobinemic metabolites with pooled human liver microsomes and human erythrocytes; format: cell-based
Mouse Liver Microsomes = test: In vitro formation of methemoglobinemic metabolites with mouse liver microsomes and human erythrocytes; format: cell-based
CYP 2D6 = target: T1, CYP 2D6 (Homo sapiens, UniProt P10635); test: Methemoglobinemic metabolite formation with Baculosomes, CYP 2D6; format: cell-based; conditions: mean ± S.D. of four
T1 construct: purchased; host or cells: insect cells infected with recombinant baculovirus

CYP 3A4 = target: T2, CYP 3A4 (Homo sapiens, UniProt P08684); test: Methemoglobinemic metabolite formation with Baculosomes, CYP 3A4; format: cell-based
T2 construct: purchased; host or cells: insect cells infected with recombinant baculovirus

CYP 2E1 = target: T3, CYP 2E1 (Homo sapiens, UniProt P05181); test: Methemoglobinemic metabolite formation with Baculosomes, CYP 2E1; format: cell-based; conditions: mean ± S.D. of four
T3 construct: purchased; host or cells: insect cells infected with recombinant baculovirus

CYP 2A6 = target: T4, CYP 2A6 (Homo sapiens, UniProt P11509); test: Methemoglobinemic metabolite formation with Baculosomes, CYP 2A6; format: cell-based; conditions: mean ± S.D. of four
T4 construct: purchased; host or cells: insect cells infected with recombinant baculovirus
T4 sequence (P11509 1-494): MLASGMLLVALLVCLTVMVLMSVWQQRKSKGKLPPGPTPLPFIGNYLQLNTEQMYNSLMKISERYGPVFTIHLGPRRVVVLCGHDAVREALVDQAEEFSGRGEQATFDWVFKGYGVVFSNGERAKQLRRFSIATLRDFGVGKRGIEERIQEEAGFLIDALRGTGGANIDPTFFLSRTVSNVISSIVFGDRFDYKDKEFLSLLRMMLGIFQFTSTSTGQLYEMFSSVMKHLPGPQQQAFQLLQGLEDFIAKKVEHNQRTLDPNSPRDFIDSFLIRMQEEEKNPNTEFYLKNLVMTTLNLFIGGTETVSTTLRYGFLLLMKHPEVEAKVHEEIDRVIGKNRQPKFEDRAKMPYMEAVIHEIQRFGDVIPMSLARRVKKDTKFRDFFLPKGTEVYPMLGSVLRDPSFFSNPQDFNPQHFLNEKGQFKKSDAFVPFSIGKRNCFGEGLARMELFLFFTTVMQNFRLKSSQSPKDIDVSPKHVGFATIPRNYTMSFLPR

CYP 2C19 = target: T5, CYP 2C19 (Homo sapiens, UniProt P33261); test: Methemoglobinemic metabolite formation with Baculosomes, CYP 2C19; format: cell-based; conditions: mean ± S.D. of four
T5 construct: purchased; host or cells: insect cells infected with recombinant baculovirus

CYP 2C9 = target: T6, CYP 2C9 (Homo sapiens, UniProt P11712); test: Methemoglobinemic metabolite formation with Baculosomes, CYP 2C9; format: cell-based; conditions: mean ± S.D. of four
T6 construct: purchased; host or cells: insect cells infected with recombinant baculovirus

[2] = system: individual human liver microsomes (HLM)
Experimental: In one aspect of the present invention, an in vitro assay is developed for evaluation of biotransformation reactions leading to generation of methemoglobinemic metabolites of 8-aminoquinolines. This method uses simultaneous incubation of a test compound with the hepatic microsomes or Baculosomes® (microsomes prepared from insect cells infected with recombinant baculovirus containing a cDNA insert for a specific human P450 isozyme and NADPH-P450 reductase) and human erythrocytes followed by determination of methemoglobin formation. This allows the unstable metabolites generated in situ to react with the human erythrocytes.
For Correlation analysis six different lots of individual human liver microsomes (HLM) were obtained from BD biosciences (www.gentest.com ) with good variations in CYP3A4 activity (Testosterone 6β-hydroxylase activity ranging from 700-12,000 pmol/mg protein). […] Donor information, genotypes, immunoquantitation was provided along with the characterization table, with different cytochrome P450 assays conducted with NADPH regenerating system, MgCl2 and 0.1M potassium phosphate buffer.

Plasmodium berghei = test: In vivo antimalarial evaluation in Plasmodium berghei-mouse malaria model
From the text: One concern with this method of controlling 8-aminoquinoline toxicity is that the inhibition metabolism of the drug may impair its antiparasitic efficacy. […] Thus treatment of the individuals with NPC1161B along with an inhibitor of CYP3A4 should not compromise the therapeutic efficiency of NPC1161B.

[3] = drug 100 μM, microsomes equivalent to 25 pmoles cytochrome P450, Mean ± S.D. of four

T2 sequence (P08684 2-503 limits assumed): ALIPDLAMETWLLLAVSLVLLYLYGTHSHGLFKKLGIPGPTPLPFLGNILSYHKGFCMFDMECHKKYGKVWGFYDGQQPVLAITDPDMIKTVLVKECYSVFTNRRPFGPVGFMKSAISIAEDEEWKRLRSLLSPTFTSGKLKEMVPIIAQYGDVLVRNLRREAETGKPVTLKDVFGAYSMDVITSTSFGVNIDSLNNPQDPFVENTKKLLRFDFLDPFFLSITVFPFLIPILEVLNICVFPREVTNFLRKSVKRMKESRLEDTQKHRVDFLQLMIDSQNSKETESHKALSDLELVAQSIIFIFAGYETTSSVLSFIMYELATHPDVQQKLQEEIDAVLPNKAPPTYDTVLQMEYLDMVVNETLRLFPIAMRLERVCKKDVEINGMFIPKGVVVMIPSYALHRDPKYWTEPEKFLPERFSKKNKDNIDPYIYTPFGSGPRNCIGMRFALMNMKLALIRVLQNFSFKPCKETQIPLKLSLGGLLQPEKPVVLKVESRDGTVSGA
T6 sequence (P11712 whole entry): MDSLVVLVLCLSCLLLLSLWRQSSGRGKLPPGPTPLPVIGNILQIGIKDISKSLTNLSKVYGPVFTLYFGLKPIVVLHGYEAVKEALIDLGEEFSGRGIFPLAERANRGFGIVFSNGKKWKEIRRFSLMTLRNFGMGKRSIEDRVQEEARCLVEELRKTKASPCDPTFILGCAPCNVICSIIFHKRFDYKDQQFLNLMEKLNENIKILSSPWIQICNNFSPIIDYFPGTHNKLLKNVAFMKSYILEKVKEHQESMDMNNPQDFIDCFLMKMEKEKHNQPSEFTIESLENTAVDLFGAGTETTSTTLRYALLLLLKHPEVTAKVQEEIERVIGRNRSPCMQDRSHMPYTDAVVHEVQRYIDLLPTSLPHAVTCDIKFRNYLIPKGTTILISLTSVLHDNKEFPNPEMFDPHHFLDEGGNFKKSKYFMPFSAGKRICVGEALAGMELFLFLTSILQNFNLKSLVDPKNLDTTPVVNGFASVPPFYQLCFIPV
T1 sequence (P10635 whole entry): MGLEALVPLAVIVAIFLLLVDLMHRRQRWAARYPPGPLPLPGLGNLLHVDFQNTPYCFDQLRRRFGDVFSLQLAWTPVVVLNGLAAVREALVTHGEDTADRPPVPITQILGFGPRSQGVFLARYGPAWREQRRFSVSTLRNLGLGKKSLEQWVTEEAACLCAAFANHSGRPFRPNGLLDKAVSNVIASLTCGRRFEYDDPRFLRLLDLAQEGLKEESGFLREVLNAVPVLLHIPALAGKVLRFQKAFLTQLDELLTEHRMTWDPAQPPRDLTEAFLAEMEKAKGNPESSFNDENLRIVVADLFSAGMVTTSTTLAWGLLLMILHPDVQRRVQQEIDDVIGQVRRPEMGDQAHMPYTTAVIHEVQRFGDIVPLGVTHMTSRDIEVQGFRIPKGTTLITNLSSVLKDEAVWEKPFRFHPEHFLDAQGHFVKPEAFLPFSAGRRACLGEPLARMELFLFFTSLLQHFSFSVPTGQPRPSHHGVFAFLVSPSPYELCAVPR
T5 sequence (P33261 whole entry): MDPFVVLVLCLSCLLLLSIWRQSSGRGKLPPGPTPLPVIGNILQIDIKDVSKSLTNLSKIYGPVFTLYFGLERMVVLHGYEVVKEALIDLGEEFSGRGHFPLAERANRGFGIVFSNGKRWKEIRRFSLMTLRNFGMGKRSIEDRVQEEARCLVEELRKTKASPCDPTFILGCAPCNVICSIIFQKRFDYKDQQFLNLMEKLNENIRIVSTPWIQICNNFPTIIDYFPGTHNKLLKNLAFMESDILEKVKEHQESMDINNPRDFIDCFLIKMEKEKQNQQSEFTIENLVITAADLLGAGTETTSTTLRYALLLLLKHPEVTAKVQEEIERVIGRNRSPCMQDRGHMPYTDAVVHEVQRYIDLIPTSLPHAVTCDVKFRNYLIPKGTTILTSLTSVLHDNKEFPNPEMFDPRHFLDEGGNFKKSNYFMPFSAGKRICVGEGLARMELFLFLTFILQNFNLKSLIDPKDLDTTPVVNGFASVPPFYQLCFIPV
T3 sequence (P05181 whole entry): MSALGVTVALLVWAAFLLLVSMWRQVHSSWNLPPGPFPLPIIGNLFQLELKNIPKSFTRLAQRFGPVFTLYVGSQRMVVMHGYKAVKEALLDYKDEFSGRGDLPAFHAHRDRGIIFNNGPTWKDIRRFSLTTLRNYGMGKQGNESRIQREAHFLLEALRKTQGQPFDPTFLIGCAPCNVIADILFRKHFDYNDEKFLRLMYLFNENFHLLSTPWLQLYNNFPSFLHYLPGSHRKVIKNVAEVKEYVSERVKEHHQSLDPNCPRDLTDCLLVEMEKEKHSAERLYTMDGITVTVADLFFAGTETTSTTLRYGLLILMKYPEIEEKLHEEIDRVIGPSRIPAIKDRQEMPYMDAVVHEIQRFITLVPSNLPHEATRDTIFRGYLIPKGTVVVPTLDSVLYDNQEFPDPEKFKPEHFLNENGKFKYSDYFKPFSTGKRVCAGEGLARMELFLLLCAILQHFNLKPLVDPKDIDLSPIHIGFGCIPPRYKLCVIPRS

## COc1cc(N[C@H](C)CCCN)c2nccc(C)c2c1Oc1ccc(Cl)c(Cl)c1 [NPC1161B]
Human erythrocytes; no Baculosomes, mean ± S.D. of four
  % methemoglobin formed, Supersomes None: 0.980 ± 0.493%
Human erythrocytes; no microsomes, drug 100 μM, Mean ± S.D. of four observations
  % methemoglobin formation, Control: 0.980 ± 0.439%
[1]; FIGS. 1 and 2, Table 1
  methemoglobin toxicity compared with primaquine and NPC 1161A: significantly reduced methemoglobin toxicity
[1]; [3]
  % methemoglobin formation, Pooled Human liver Microsomes: 7.455 ± 0.879%
[1]; pooled human Liver Microsomes, 8-aminoquinoline with Azithromycin
  formation of methemoglobenemic metabolites, Azithromycin: 7.565 ± 1.276
[1]; pooled human Liver Microsomes, 8-aminoquinoline with Erythromycin
  formation of methemoglobenemic metabolites, Erythromycin: 0
[1]; pooled human Liver Microsomes, no macrolide
  formation of methemoglobenemic metabolites, Microsomes: 7.697 ± 1.392
[1]; pooled human liver microsomes, FIG. 7 and 8
  methemoglobin toxicity with macrolide antibiotics troleandomycin and erythromycin: almost completely abolished
Mouse Liver Microsomes; Mouse Liver Microsomes, 8-aminoquinoline with Azithromycin
  formation of methemoglobenemic metabolites, Azithromycin: 9.993 ± 1.306
Mouse Liver Microsomes; Mouse Liver Microsomes, 8-aminoquinoline with Erythromycin
  formation of methemoglobenemic metabolites, Erythromycin: 3.133 ± 0.963
Mouse Liver Microsomes; Mouse Liver Microsomes, no macrolide
  formation of methemoglobenemic metabolites, Microsomes: 11.24 ± 3.612
Mouse Liver Microsomes; [3]
  % methemoglobin formation, Mouse Liver Microsomes: 11.240 ± 3.612%
CYP 2D6
  % methemoglobin formed, CYP 2D6: 5.380 ± 1.402%
CYP 3A4; 3A4 Baculosomes, 8-aminoquinoline 100 μM with Cimetidine 100 μM
  % methemoglobin formed, Cimetidine: 8.567 ± 0.600%
CYP 3A4; 3A4 Baculosomes, 8-aminoquinoline 100 μM with Erythromycin 100 μM
  % methemoglobin formed, Erythromycin: 11.655 ± 1.818%
CYP 3A4; 3A4 Baculosomes, 8-aminoquinoline 100 μM with Ketoconazole 100 μM
  % methemoglobin formed, Ketoconazole: 9.615 ± 1.552%
CYP 3A4; 3A4 Baculosomes, 8-aminoquinoline 100 μM with Troleandomycin 100 μM
  % methemoglobin formed, Troleandomycin: 2.785 ± 0.628%
CYP 3A4; 3A4 Baculosomes, 8-aminoquinoline 100 μM, no inhibitor
  % methemoglobin formed, inhibitor None: 18.185 ± 2.809%
CYP 3A4; Baculosomes, mean ± S.D. of four
  % methemoglobin formed, CYP 3A4: 15.280 ± 1.077%
CYP 3A4; FIG. 4, Table 2
  CYP responsible for metabolism: primarily metabolized by CYP 3A4
CYP 3A4; FIG. 5
  methemoglobin toxicity generated by CYP 3A4, comparison among the three 8-aminoquinolines: almost similar methemoglobin toxicity
CYP 2E1
  % methemoglobin formed, CYP 2E1: 3.801 ± 1.996%
CYP 2A6
  % methemoglobin formed, CYP 2A6: 2.135 ± 0.530%
CYP 2C19
  % methemoglobin formed, CYP 2C19: 3.870 ± 0.577%
CYP 2C9
  % methemoglobin formed, CYP 2C9: 3.690 ± 1.660%
[2]
  R value, linear correlation between % methemoglobin formation and CYP3A4 Content of HLM preparation: > 0.9
  correlation of methemoglobin toxicity with CYP 2D6 or CYP2E1 contents of HLM preparations: did not correlate
Plasmodium berghei; NPC 1161B 0.312 mg/kg × 3 oral +TAO (i.p.)
  deaths: nil
Plasmodium berghei; NPC 1161B 0.312 mg/kg × 3 oral +TAO (i.p.), day 10 p.i., individual mice
  (%) Parasitemia: 0/0/0/0/0
Plasmodium berghei; NPC 1161B 0.312 mg/kg × 3 oral +TAO (i.p.), day 14 p.i., mean in brackets
  (%) Parasitemia: 2.83/2.04/+/5.29/0 (2.0) %
Plasmodium berghei; NPC 1161B 0.312 mg/kg × 3 oral +TAO (i.p.), day 21 p.i., mean in brackets
  (%) Parasitemia: 23.8/32.4/0/28.3/0 (16.9) %
Plasmodium berghei; NPC 1161B 0.312 mg/kg × 3 oral, Alone
  deaths: nil
Plasmodium berghei; NPC 1161B 0.312 mg/kg × 3 oral, Alone, day 14 p.i., mean in brackets
  (%) Parasitemia: 0/5.8/0.66/0.8/1.36 (2.9) %
Plasmodium berghei; NPC 1161B 0.312 mg/kg × 3 oral, Alone, day 21 p.i., mean in brackets
  (%) Parasitemia: 11.3/53.3/19.4/6.0/17.8 (21.5) %
Plasmodium berghei; NPC 1161B 0.625 mg/kg × 3 oral +TAO (i.p.)
  deaths: nil
Plasmodium berghei; NPC 1161B 0.625 mg/kg × 3 oral +TAO (i.p.), day 10 p.i., individual mice
  (%) Parasitemia: 0/0/0/0/0
Plasmodium berghei; NPC 1161B 0.625 mg/kg × 3 oral +TAO (i.p.), day 21 p.i., mean in brackets
  (%) Parasitemia: 8.4/0/10.4/18.4/1.5 (7.7) %
Plasmodium berghei; NPC 1161B 0.625 mg/kg × 3 oral, Alone
  deaths: nil
Plasmodium berghei; NPC 1161B 0.625 mg/kg × 3 oral, Alone, day 7 p.i., individual mice
  (%) Parasitemia: 0/0/0/0/0
Plasmodium berghei; NPC 1161B 0.625 mg/kg × 3 oral, Alone, day 21 p.i., mean in brackets
  (%) Parasitemia: 0/+/5.2/2.6/3.7 (2.3) %
Plasmodium berghei; NPC 1161B 1.25 mg/kg × 3 oral +TAO (i.p.)
  deaths: nil
Plasmodium berghei; NPC 1161B 1.25 mg/kg × 3 oral +TAO (i.p.), day 7 p.i., individual mice
  (%) Parasitemia: 0/0/0/0/0
Plasmodium berghei; NPC 1161B 1.25 mg/kg × 3 oral +TAO (i.p.), day 10 p.i., individual mice
  (%) Parasitemia: 0/0/0/0/0
Plasmodium berghei; NPC 1161B 1.25 mg/kg × 3 oral +TAO (i.p.), day 14 p.i., individual mice
  (%) Parasitemia: 0/0/0/0/0
Plasmodium berghei; NPC 1161B 1.25 mg/kg × 3 oral +TAO (i.p.), day 21 p.i., individual mice
  (%) Parasitemia: 0/0/0/0/0
Plasmodium berghei; NPC 1161B 1.25 mg/kg × 3 oral +TAO (i.p.), day 28 p.i., individual mice
  (%) Parasitemia: 0/0/0/0/0
Plasmodium berghei; NPC 1161B 1.25 mg/kg × 3 oral, Alone
  deaths: nil
Plasmodium berghei; NPC 1161B 1.25 mg/kg × 3 oral, Alone, day 7 p.i., individual mice
  (%) Parasitemia: 0/0/0/0/0
Plasmodium berghei; NPC 1161B 1.25 mg/kg × 3 oral, Alone, day 10 p.i., individual mice
  (%) Parasitemia: 0/0/0/0/0
Plasmodium berghei; NPC 1161B 1.25 mg/kg × 3 oral, Alone, day 14 p.i., individual mice
  (%) Parasitemia: 0/0/0/0/0
Plasmodium berghei; NPC 1161B 1.25 mg/kg × 3 oral, Alone, day 21 p.i., individual mice
  (%) Parasitemia: 0/0/0/0/0
Plasmodium berghei; NPC 1161B 1.25 mg/kg × 3 oral, Alone, day 28 p.i., individual mice
  (%) Parasitemia: 0/0/0/0/0
Plasmodium berghei; NPC 1161B 2.5 mg/kg × 3 oral +TAO (i.p.)
  deaths: nil
Plasmodium berghei; NPC 1161B 2.5 mg/kg × 3 oral +TAO (i.p.), day 7 p.i., individual mice
  (%) Parasitemia: 0/0/0/0/0
Plasmodium berghei; NPC 1161B 2.5 mg/kg × 3 oral +TAO (i.p.), day 10 p.i., individual mice
  (%) Parasitemia: 0/0/0/0/0
Plasmodium berghei; NPC 1161B 2.5 mg/kg × 3 oral +TAO (i.p.), day 14 p.i., individual mice
  (%) Parasitemia: 0/0/0/0/0
Plasmodium berghei; NPC 1161B 2.5 mg/kg × 3 oral +TAO (i.p.), day 21 p.i., individual mice
  (%) Parasitemia: 0/0/0/0/0
Plasmodium berghei; NPC 1161B 2.5 mg/kg × 3 oral +TAO (i.p.), day 28 p.i., individual mice
  (%) Parasitemia: 0/0/0/0/0
Plasmodium berghei; NPC 1161B 2.5 mg/kg × 3 oral, Alone
  deaths: nil
Plasmodium berghei; NPC 1161B 2.5 mg/kg × 3 oral, Alone, day 7 p.i., individual mice
  (%) Parasitemia: 0/0/0/0/0
Plasmodium berghei; NPC 1161B 2.5 mg/kg × 3 oral, Alone, day 10 p.i., individual mice
  (%) Parasitemia: 0/0/0/0/0
Plasmodium berghei; NPC 1161B 2.5 mg/kg × 3 oral, Alone, day 14 p.i., individual mice
  (%) Parasitemia: 0/0/0/0/0
Plasmodium berghei; NPC 1161B 2.5 mg/kg × 3 oral, Alone, day 21 p.i., individual mice
  (%) Parasitemia: 0/0/0/0/0
Plasmodium berghei; NPC 1161B 2.5 mg/kg × 3 oral, Alone, day 28 p.i., individual mice
  (%) Parasitemia: 0/0/0/0/0
Plasmodium berghei; mice infected with Plasmodium berghei, Table 7
  effect of troleandomycin on the antimalarial property of NPC1161B: does not antagonize
